Laboratory results: patent publication US20060014737A1, “Methods of treatment of amyloidosis using bi-aryl aspartyl protease inhibitors” (priority 2004, published 2006)
Where “and” joins values, the source holds several entries; their conditions need not be identical. Equal entries are not always repeated.

How the values were obtained:
[1] = test system: catD versus beta-secretase (BACE); experiment: Selectivity for BACE versus catD (ratio of IC50 values); format: biochemical; settings: each value an average of four runs; multiple values = more than one experiment
Procedure: (§1) Investigation of potential beta-secretase inhibitors produced compounds with increased selectivity for beta-secretase over other aspartyl proteases such as cathepsin D (catD), cathepsin E (catE), HIV protease, and renin. Selectivity was calculated as a ratio of inhibition (IC50) values in which the inhibition of beta-secretase was compared to the inhibition of other aspartyl proteases. […] Alternatively, a compound is selective when its binding affinity is greater for its desired target (e.g., beta-secretase) versus a secondary target (e.g., catD). Accordingly, methods of treatment include administering selective compounds of formula (I) having a lower IC50 value for inhibiting beta-secretase, or greater binding affinity for beta-secretase, than for other aspartyl proteases such as catD, catE, HIV protease, or renin. A selective compound is also capable of producing a higher ratio of desired effects to adverse effects, resulting in a safer method of treatment.
The compounds of formula (I) can be selective for beta-secretase versus catD. […] Selectivity is reported as the ratio of IC50(catD):IC50(BACE).
(§2) In the following examples, each value is an average of four experimental runs and multiple values for one compound indicate that more than one experiment was conducted.

A-beta = experiment: Efficacy of compounds to inhibit A-beta concentration; format: in vivo, rat; settings: % inhibition of A-beta vs vehicle control
Procedure: Efficacious compounds of the present invention are those able to decrease the amount of A-beta produced compared to a control, where beta-secretase mediated cleavage is observed and measured in the absence of the compounds. Detection of efficacy can be by analysis of A-beta levels, for example, by immunoassay, fluorometric or chromogenic assay, HPLC, or other means of detection. The efficacy of the compounds of formula (I) was determined as a percentage inhibition corresponding to A-beta concentrations for tissue treated and untreated with a compound of formula (I).
The invention encompasses compounds of formula (I) that are efficacious. Efficacy is calculated as a percentage of concentrations as follows: Efficacy=(1−(total A-beta in dose group/total A-beta in vehicle control))*100% wherein the “total A-beta in dose group” equals the concentration of A-beta in the tissue, (e.g., rat brain) treated with the compound, and the “total A-beta in vehicle control” equals the concentration of A-beta in the tissue, yielding a % inhibition of A-beta production. Statistical significance is determined by p-value <0.05 using the Mann Whitney t-test. See, for example, Dovey et al., J. Neurochemistry, 2001, 76:173-181.

[2] = test system: catE versus beta-secretase (BACE); experiment: Selectivity for BACE versus catE (ratio of IC50 values); format: biochemical; settings: each value an average of four runs; multiple values = more than one experiment
Procedure: as §1
The compounds of formula (I) can be selective for beta-secretase versus catE. […] Selectivity is reported as the ratio of IC50(catE):IC50(BACE).
as §2

| Selectivity IC50(catD)/IC50(BACE) [1] | Structure (SMILES) | other results |
| --- | --- | --- |
| 1.7 | CC(=O)NC(Cc1cc(F)cc(F)c1)C(O)CNCc1cc(CC(C)(C)C)ccc1-n1cnc(C)c1 (centres unmarked) [Example 41.4, N-{1-(3,5-Difluoro-benzyl)-3-[5-(2,2-dimethyl-propyl)-2-(4-methyl-imidazol-1-yl)-benzylamino]-2-hydroxy-propyl}-acetamide] | – |
| >33.1 | CC(=O)NC(Cc1cc(F)cc(F)c1)C(O)CNCc1cc(CC(C)(C)C)ccc1-n1nccn1 (centres unmarked) [Example 41.7, N-(1-(3,5-difluorophenyl)-3-hydroxy-4-(5-neopentyl-2-(2H-1,2,3-triazol-2-yl)benzylamino)butan-2-yl)acetamide] | – |
| – | CC(=O)NC(Cc1cc(F)cc(F)c1)C(O)CNCc1cc(CC(C)(C)C)ccc1-n1ccnc1 (centres unmarked) [Example 41.1, N-{1-(3,5-Difluoro-benzyl)-3-[5-(2,2-dimethyl-propyl)-2-imidazol-1-yl-benzylamino]-2-hydroxy-propyl}-acetamide] | Efficacy (% Inhibition, 100 mg/kg) cortex (A-beta; cortex): 15%; Efficacy (% Inhibition, 100 mg/kg) plasma (A-beta; plasma): 47% |
| – | CC(=O)NC(Cc1cc(F)cc(F)c1)C(O)CNCc1cc(CC(C)(C)C)ccc1-n1cnc(CO)c1 (centres unmarked) [Example 41.9, N-(1-(3,5-difluorophenyl)-3-hydroxy-4-(2-(4-(hydroxymethyl)-1H-imidazol-1-yl)-5-neopentylbenzylamino)butan-2-yl)acetamide] | Selectivity IC50(catE)/IC50(BACE) [2]: 1.2 |
| 3.6 and 3.0 | CC(=O)NC(Cc1cc(F)cc(F)c1)C(O)CNCc1cc(CC(C)(C)C)ccc1-n1cnc2ccccc21 (centres unmarked) [Example 41.5, N-[3-[2-Benzoimidazol-1-yl-5-(2,2-dimethyl-propyl)-benzylamino]-1-(3,5-difluoro-benzyl)-2-hydroxy-propyl]-acetamide] | – |
| – | CC(=O)NC(Cc1cc(F)cc(F)c1)C(O)CNCc1cc(CC(C)(C)C)ccc1-n1nccn1 (centres unmarked) [Example 41.11, N-(1-(3,5-difluorophenyl)-3-hydroxy-4-(5-neopentyl-2-(2H-1,2,3-triazol-2-yl)benzylamino)butan-2-yl)acetamide] | Selectivity IC50(catE)/IC50(BACE) [2]: 1.4 |
| 1.6 | CC(=O)NC(Cc1cc(F)cc(F)c1)C(O)CNCc1cc(CC(C)(C)C)ccc1-n1cnc(CO)c1 (centres unmarked) [Example 41.3, N-(1-(3,5-difluorophenyl)-3-hydroxy-4-(2-(4-(hydroxymethyl)-1H-imidazol-1-yl)-5-neopentylbenzylamino)butan-2-yl)acetamide] | – |
